Measured values: the NIST ThermoML archive (doi:10.1016/j.jct.2016.03.021)

Assay: wn = mass fraction of the nth substance listed
Conditions: Liquid; for mass density: Vibrating tube method

CN(CCO)CCO [N-methyldiethanolamine] + O
mass density [kg/m3]
Conditions | w1 = 0.1 | w1 = 0.2002 | w1 = 0.3 | w1 = 0.4
333.15 K, 60000 kPa | – | – | – | 1035
333.15 K, 70000 kPa | 1017.9 | 1024.4 | 1031.5 | 1038.4
333.15 K, 80000 kPa | 1021.6 | 1027.9 | 1034.9 | 1041.6
333.15 K, 90000 kPa | 1025.1 | 1031.3 | 1038.1 | 1044.9
333.15 K, 100000 kPa | 1028.5 | 1034.7 | 1041.6 | 1048.2
333.15 K, 110000 kPa | 1031.9 | 1038 | 1044.6 | 1051.3
333.15 K, 120000 kPa | 1035.4 | 1041.4 | 1047.9 | 1054.5
333.15 K, 130000 kPa | 1038.7 | 1044.5 | 1051 | 1057.5
333.15 K, 140000 kPa | 1042 | 1047.7 | 1054.2 | 1060.6
353.15 K, 100 kPa | 978.6 | 985.3 | 992 | 998.1
353.15 K, 500 kPa | 978.7 | 985.3 | 992 | 998.2
353.15 K, 1000 kPa | 978.9 | 985.5 | 992.2 | 998.4
353.15 K, 2000 kPa | 979.3 | 985.9 | 992.7 | 998.8
353.15 K, 5000 kPa | 980.6 | 987.2 | 993.9 | 1000.1
353.15 K, 10000 kPa | 982.8 | 989.4 | 996.1 | 1002.3
353.15 K, 15000 kPa | 984.9 | 991.5 | 998.2 | 1004.4
353.15 K, 20000 kPa | 987 | 993.5 | 1000.3 | 1006.5
353.15 K, 30000 kPa | 991.2 | 997.6 | 1004.3 | 1010.5
353.15 K, 40000 kPa | 995.2 | 1001.6 | 1008.1 | 1014.4
353.15 K, 50000 kPa | 999.1 | 1005.5 | 1012 | 1018.2
353.15 K, 60000 kPa | 1003.1 | 1009.3 | 1015.9 | 1022
353.15 K, 70000 kPa | 1006.9 | 1012.9 | 1019.5 | 1025.6
353.15 K, 80000 kPa | 1010.5 | 1016.6 | 1023 | 1029.1
353.15 K, 90000 kPa | 1014 | 1020 | 1026.4 | 1032.6
353.15 K, 100000 kPa | 1017.7 | 1023.6 | 1029.9 | 1036
353.15 K, 110000 kPa | 1021.2 | 1027 | 1033.3 | 1039.3
353.15 K, 120000 kPa | 1024.6 | 1030.4 | 1036.6 | 1042.5
353.15 K, 130000 kPa | 1028 | 1033.6 | 1039.8 | 1045.8
353.15 K, 140000 kPa | 1031.2 | 1036.8 | 1042.9 | 1048.9
373.15 K, 100 kPa | 964.4 | 970.5 | 976.5 | 981.9
373.15 K, 500 kPa | 964.6 | 970.7 | 976.6 | 982.1
373.15 K, 1000 kPa | 964.9 | 970.9 | 976.9 | 982.4
373.15 K, 2000 kPa | 965.3 | 971.4 | 977.4 | 982.8
373.15 K, 5000 kPa | 966.7 | 972.8 | 978.7 | 984.2
373.15 K, 10000 kPa | 969 | 975 | 981.1 | 986.5
373.15 K, 15000 kPa | 971.2 | 977.2 | 983.4 | 988.8
373.15 K, 20000 kPa | 973.5 | 979.5 | 985.6 | 991.1
373.15 K, 30000 kPa | 977.9 | 983.9 | 989.8 | 995.5
373.15 K, 40000 kPa | 982.1 | 988.2 | 994.1 | 999.8
373.15 K, 50000 kPa | 986.2 | 992.1 | 998.1 | 1003.7
373.15 K, 60000 kPa | 990.1 | 996.1 | 1002.1 | 1007.7
373.15 K, 70000 kPa | 994.2 | 1000 | 1005.9 | 1011.6
373.15 K, 80000 kPa | 998.1 | 1003.8 | 1009.8 | 1015.4
373.15 K, 90000 kPa | 1001.8 | 1007.4 | 1013.3 | 1019
373.15 K, 100000 kPa | 1005.3 | 1011.1 | 1017 | 1022.6
373.15 K, 110000 kPa | 1009 | 1014.7 | 1020.5 | 1026.2
373.15 K, 120000 kPa | 1012.6 | 1018.3 | 1024 | 1029.7
373.15 K, 130000 kPa | 1016 | 1021.5 | 1027.4 | 1033
373.15 K, 140000 kPa | 1019.4 | 1025 | 1030.7 | 1036.3
393.15 K, 100 kPa | 948.6 | 954 | 959.6 | 964.2
393.15 K, 500 kPa | 949 | 954.4 | 959.9 | 964.7
393.15 K, 1000 kPa | 949.2 | 954.6 | 960.1 | 964.8
393.15 K, 2000 kPa | 949.6 | 955.2 | 960.6 | 965.4
393.15 K, 5000 kPa | 951.1 | 956.7 | 962.1 | 966.9
393.15 K, 10000 kPa | 953.6 | 959.2 | 964.7 | 969.5
393.15 K, 15000 kPa | 956 | 961.6 | 967.1 | 972
393.15 K, 20000 kPa | 958.5 | 964 | 969.6 | 974.5
393.15 K, 30000 kPa | 963 | 968.5 | 974.2 | 979.2
393.15 K, 40000 kPa | 967.6 | 973.1 | 978.7 | 983.9
393.15 K, 50000 kPa | 971.8 | 977.3 | 983 | 988.1
393.15 K, 60000 kPa | 976.2 | 981.7 | 987.4 | 992.5
393.15 K, 70000 kPa | 980.4 | 985.9 | 991.6 | 996.8
393.15 K, 80000 kPa | 984.3 | 989.8 | 995.4 | 1000.8
393.15 K, 90000 kPa | 988.3 | 993.7 | 999.4 | 1004.6
393.15 K, 100000 kPa | 992.1 | 997.5 | 1003.1 | 1008.5
393.15 K, 110000 kPa | 995.9 | 1001.4 | 1006.9 | 1012.3
393.15 K, 120000 kPa | 999.6 | 1005 | 1010.6 | 1015.9
393.15 K, 130000 kPa | 1003.1 | 1008.5 | 1014.1 | 1019.4
393.15 K, 140000 kPa | 1006.7 | 1012 | 1017.6 | 1023

viscosity [mPa·s]
Conditions | w1 = 0.1 | w1 = 0.2 | w1 = 0.2002 | w1 = 0.3 | w1 = 0.4
333.15 K, 80000 kPa, Falling or rolling sphere viscometry | 0.661 | – | 0.942 | 1.4 | 2.134
333.15 K, 100000 kPa, Falling or rolling sphere viscometry | 0.672 | – | 0.967 | 1.435 | 2.206
333.15 K, 120000 kPa, Falling or rolling sphere viscometry | 0.68 | – | 0.982 | 1.468 | 2.28
353.15 K, 93 kPa, Concentric cylinders viscometry | – | 0.6205 | – | 0.8505 | 1.186
353.15 K, 100 kPa, Falling or rolling sphere viscometry | – | 0.617 | 0.617 | 0.854 | 1.181
353.15 K, 5000 kPa, Falling or rolling sphere viscometry | – | – | 0.62 | 0.862 | 1.193
353.15 K, 10000 kPa, Falling or rolling sphere viscometry | – | – | 0.625 | 0.869 | 1.204
353.15 K, 20000 kPa, Falling or rolling sphere viscometry | – | – | 0.633 | 0.881 | 1.229
353.15 K, 30000 kPa, Falling or rolling sphere viscometry | – | – | 0.64 | 0.894 | 1.253
353.15 K, 40000 kPa, Falling or rolling sphere viscometry | – | – | 0.647 | 0.907 | 1.276
353.15 K, 60000 kPa, Falling or rolling sphere viscometry | – | – | 0.661 | 0.932 | 1.322
353.15 K, 80000 kPa, Falling or rolling sphere viscometry | – | – | 0.675 | 0.959 | 1.368
353.15 K, 100000 kPa, Falling or rolling sphere viscometry | – | – | 0.691 | 0.997 | 1.419
353.15 K, 120000 kPa, Falling or rolling sphere viscometry | – | – | 0.705 | 1.018 | 1.467
